Legend:
[1] = test system: B16 melanoma; experiment: Cancer cell growth inhibition assay (MTT); type: cell-based, murine; details: Mus musculus, B16
Method: (§1) Exponentially growing cells in 0.1 ml medium were seeded on Day 0 in 96-well microtiter plates. On Day 1, 0.1-ml aliquots of medium containing graded concentrations test agent were added in duplicate to the cell plates. After incubation at 37° C. in a humidified incubator, the plates were centrifuged briefly (1-2 min at 1000 rpm), and 100 μl of the growth medium was removed. Cell cultures were incubated with 50 μl of 3-(4,5-dimethylthiazyl-2-yl)-2,5-diphenyltetrazolium bromide MTT, 1 mg/ml in Dubecco's PBS for 4 h at 37° C. The resulting purple formazan precipitate was solubilized with 200 μl of 0.4 N HCl in isopropyl alcohol. Absorbance was quantitated using a Bio-Rad Model 3550 microplate reader at a test wavelength of 570 nm and a reference wavelength of 630 nm. Absorbance values were transferred to a 486 personal computer, and the IC50 values were determined using the computer program EZ-ED50 (Chen et al., 1993).

[2] = molecular target: T1, topo II-DNA complex (Drosophila melanogaster, UniProt P15348); experiment: Psorospermin competition study (DNA strand breakage assay); type: biochemical
T1 construct: purchased Amersham
T1 sequence (P15348 1-1447): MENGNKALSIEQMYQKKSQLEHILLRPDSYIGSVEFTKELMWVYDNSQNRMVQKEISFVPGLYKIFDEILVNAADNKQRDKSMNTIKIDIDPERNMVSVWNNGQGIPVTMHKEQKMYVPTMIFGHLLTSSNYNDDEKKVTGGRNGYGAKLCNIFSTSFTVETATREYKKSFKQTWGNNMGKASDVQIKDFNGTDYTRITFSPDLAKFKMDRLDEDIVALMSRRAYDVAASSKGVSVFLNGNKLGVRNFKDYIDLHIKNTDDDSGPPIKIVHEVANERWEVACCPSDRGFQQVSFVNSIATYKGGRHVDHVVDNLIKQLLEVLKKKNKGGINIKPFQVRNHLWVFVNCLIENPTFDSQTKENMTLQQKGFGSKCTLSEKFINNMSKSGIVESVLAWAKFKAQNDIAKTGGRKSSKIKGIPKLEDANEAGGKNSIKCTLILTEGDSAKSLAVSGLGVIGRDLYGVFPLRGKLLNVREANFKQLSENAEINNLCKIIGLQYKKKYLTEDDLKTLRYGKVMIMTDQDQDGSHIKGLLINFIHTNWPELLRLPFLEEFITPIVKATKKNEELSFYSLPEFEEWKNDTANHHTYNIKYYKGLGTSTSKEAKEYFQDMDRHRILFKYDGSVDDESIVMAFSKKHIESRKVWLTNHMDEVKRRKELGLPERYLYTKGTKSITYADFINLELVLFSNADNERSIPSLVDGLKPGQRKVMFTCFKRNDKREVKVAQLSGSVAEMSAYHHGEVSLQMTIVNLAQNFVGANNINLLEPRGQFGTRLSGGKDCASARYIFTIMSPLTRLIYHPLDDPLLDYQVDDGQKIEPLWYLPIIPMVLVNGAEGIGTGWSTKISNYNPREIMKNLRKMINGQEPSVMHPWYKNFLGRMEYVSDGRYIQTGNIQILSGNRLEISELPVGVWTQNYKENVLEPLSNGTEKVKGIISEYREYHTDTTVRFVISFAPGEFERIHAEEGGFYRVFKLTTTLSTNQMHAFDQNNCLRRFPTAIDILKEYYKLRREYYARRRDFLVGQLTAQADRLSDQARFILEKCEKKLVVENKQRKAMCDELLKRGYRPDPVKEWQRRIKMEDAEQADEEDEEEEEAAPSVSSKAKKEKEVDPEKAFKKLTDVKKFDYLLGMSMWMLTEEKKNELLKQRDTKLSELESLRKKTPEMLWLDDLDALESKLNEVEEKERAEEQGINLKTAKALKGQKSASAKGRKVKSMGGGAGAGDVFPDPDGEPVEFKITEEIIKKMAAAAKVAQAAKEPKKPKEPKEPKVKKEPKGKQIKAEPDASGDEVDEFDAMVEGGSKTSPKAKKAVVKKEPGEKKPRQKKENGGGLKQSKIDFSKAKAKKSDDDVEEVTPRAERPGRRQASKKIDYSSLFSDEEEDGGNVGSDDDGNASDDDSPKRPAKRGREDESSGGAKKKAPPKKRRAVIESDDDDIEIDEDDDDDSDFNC
Method: 5′^32P-labeled DNA was incubated with Drosophila topo II in the same buffer as the one in the topo II cleavage reaction in the presence of various amounts of either A-62176, Norfloxacin, or both. The incubation reactions took place at 30° C. for 10 min before 10 μM (final concentration) of psorospermin was added to the mixtures. The reactions were continued for an additional 5 min and then terminated by adding 5 μg of calf thymus DNA, followed by heating at 95° C. for 15 min. In the presence of piperidine, this procedure induces strand breakage at the drug modification sites (Hansen et al., 1996). The samples were subjected to phenol/chloroform extraction followed by ethanol precipitation.
In the presence of topo II, the reactivity of psorospermin is enhanced more than 40-fold with the guanine at the +4′ position at site B in FIG. 7 (Kwok et al., 1998a and 1998b). A DNA strand breakage assay was used to locate the position of alkylation of DNA by the epoxide of psorospermin upon intercalation to the base pairs between the +1 and +2 positions at site B within the topo II-DNA complex (Kwok et al., 1998a). Psorospermin has subsequently been used to probe the binding sites for m-AMSA (Kwok et al., 1998a). In the present study, this same assay was performed to determine the binding site of A-62176 on DNA in the presence of topo II.

[3] = test system: Raji lymphoma; experiment: Cancer cell growth inhibition assay (MTT); type: cell-based, human; details: Homo sapiens, Raji
Method: as §1

[4] = test system: DU-145 prostate; experiment: Cancer cell growth inhibition assay (MTT); type: cell-based, human; details: Homo sapiens, DU-145
Method: as §1

[5] = test system: H226 non-small-cell lung; experiment: Cancer cell growth inhibition assay (MTT); type: cell-based, human; details: Homo sapiens, NCI-H226
Method: as §1

[6] = test system: HT-29 colon; experiment: Cancer cell growth inhibition assay (MTT); type: cell-based, human; details: Homo sapiens, HT-29
Method: as §1

[7] = test system: MDA-231 breast; experiment: Cancer cell growth inhibition assay (MTT); type: cell-based, human; details: Homo sapiens, MDA-MB-231
Method: as §1

IC50 [1]: 0.17 ± 0.01 µM
psorospermin alkylation at site B (competition) ([2]; 0.5-10 μM drug, psorospermin, topo II present): decreased
inhibition of psorospermin alkylation, in combination with Norfloxacin ([2]; after subtracting the enhancement by Norfloxacin alone): additive effect
IC50 [3]: 0.05 ± 0.006 µM
IC50 [4]: 0.16 ± 0.03 µM
IC50 [5]: 0.09 ± 0.003 µM
IC50 [6]: 0.16 ± 0.01 µM
IC50 [7]: 0.16 ± 0.02 µM
Structure (SMILES): N[C@H]1CCN(c2c(F)cc3c(=O)c(C(=O)O)cn4c3c2Oc2ccccc2-4)C1 [Compound A-62176, 1-(3-aminopyrrolidin-1-yl)-2-fluoro-4-oxo-4H-quino[2,3,4-i,j][1,4]benzoxazine-5-carboxylic acid, reference compound]

From US6528517B1, “Synthesis of quinobenzoxazine analogues with topoisomerase II and quadruplex interactions for use as antineoplastic agents” (Board of Regents, The University of Texas System, priority 1998, dated 2003)
